Test results as given in patent US6603025B1, “Method of production of benzofuranone oximes” (Bayer Aktiengesellschaft, priority 1999, dated 2003).

Legend:
log P = assay type: physicochemical
[1] = table of benzofuranone oximes prepared analogously to Example 2
[2] = stated in text after the preparation example
[3] = Table 1, benzofuranyl alkanoates prepared analogously to Example 3

Row | logP (log P; [1]) | logP (log P; [3]) | melting point | SMILES | also measured
1 | 1.79 |  |  | Cc1ccc2c(c1)OC/C2=N\O [Example 12] | 
2 |  |  |  | CO/N=C1\COc2ccccc21 [Example 1, O-methyl benzofuran oxime] | logP (log P; [2]): 2.38
3 | 1.52 |  |  | COc1ccc2c(c1)OC/C2=N\O [Example 13] | 
4 |  | 2.65 |  | COc1ccc2c(OC(C)=O)coc2c1 [Example 8] | 
5 |  | 3.09 | 32 to 36 °C | CC(=O)Oc1coc2cc(C)ccc12 [Example 7] | 
6 |  | 3.38 | 27 °C | CC(=O)Oc1coc2cc(C(F)(F)F)ccc12 [Example 6] | 
7 | 2.38 |  | 150 °C (dec.) | O/N=C1\COc2cc(C(F)(F)F)ccc21 [Example 11] | 
8 |  |  |  | O/N=C1\COc2ccccc21 [Example 2] | logP (log P; [2]): 1.44
